Source: patent US10100036B2, “Lappaconitine aza-cinnamic acid derivatives with anti-tumor activities and a method of preparing the same” (priority 2016, dated 2018)

Experiments:
[1] = test system: human gastric adenocarcinoma cell line (SGC-7901); experiment: tumor cell proliferation inhibition test, MTT method; assay type: cell-based; details: 48 hours treatment
Method: (§1) The compounds of the present invention were subjected to tumor cell proliferation inhibition test, and the conventional MTT method was used as the test method.
(§2) Cell lines selected are human prostate cancer cell line (PC-3), human gastric adenocarcinoma cell line (SGC-7901), and human lung cancer cell (A-549). The culture medium was DMEM+15% NBS+double antibody.
(§3) Preparation of the sample solutions: compounds were dissolved in DMSO (Merck), and PBS (−) was add to 100 μL of the solution or homogeneous suspension. The solution or suspension was diluted with DMSO and PBS(−) to final concentrations of 0.1, 1, 10, 20, 40, 60, 80, 100 μmol/L.
(§4) Anti-tumor agent 5-fluorouracil (5-FU) was used as control and was prepared in the same way as the compounds.
(§5) Living cells mitochondria in the dehydrogenase can reduce yellow MTT to water-insoluble blue-violet product MT (MTT formazan), deposited in the cells. The amount of production is proportional to the number of living cells. […] DMSO can dissolve blue violet crystals, and the color depth is proportional to the amount contained, so the absorbance measured by the microplate reader can reflect the cell viability.
(§6) The exponential phase cells were digested and counted and seeded in 96-well plates at a density of 2×10^4/mL at 100 μl per well. After 24 hours of incubation, the cells to be tested were treated with 0.1, 1, 10, 20, 40, 60, 80, 100 μmol/L of the compounds. Each experimental group had 5 wells in each concentration, and the culture medium containing 0.4% DMSO was used as control. After 48 hours, the supernatant was discarded, and 100 μl of MTT ((2-(4,5-dimethyl-2-thiazolyl)-3,5-diphenyl-2H-tetrazole hydrobromide) (1 mg/mL) was added to each well. After another 4 hours, the supernatant was discarded, and 100 μL of DMSO was added to each well. After mixing, the absorbance was measured at 570 nm using a microplate reader. An IC50 calculation software was used to determine the half inhibitory concentration (IC50).

[2] = test system: human lung cancer cell (A-549); experiment: as above; assay type: cell-based; details: 48 hours treatment, A549
Method: as §1, §2, §3, §4, §5, §6

[3] = test system: human prostate cancer cell line (PC-3); experiment: as above; assay type: cell-based; details: 48 hours treatment
Method: as §1, §2, §3, §4, §5, §6

[4] = test system: PC-3, SGC-7901 and A-549 tumor cells; experiment: tumor cell proliferation inhibition test, summary over the three cell lines; assay type: cell-based, human; details: in the 3 cell lines tested
Method: as §1, §2, §6

| SMILES | IC50 [1] [µM] | IC50 [2] [µM] | IC50 [3] [µM] | activities compared with 5-fluorouracil [4] |
| --- | --- | --- | --- | --- |
| CCN1C[C@]2(OC(=O)c3ccccc3NC(=O)/C=C/c3ccncc3)CC[C@H](OC)[C@]34C1[C@@H](C[C@H]23)[C@@]1(O)C[C@H](OC)C[C@H]2C[C@@H]4[C@]1(O)[C@H]2OC [Compound 1] | 22.5 ± 1.35 | 9.12 ± 2.53 | 18.1 ± 0.64 |  |
| CCN1C[C@]2(OC(=O)c3ccccc3NC(=O)/C=C/c3cccnc3)CC[C@H](OC)[C@]34C1[C@@H](C[C@H]23)[C@@]1(O)C[C@H](OC)C[C@H]2C[C@@H]4[C@]1(O)[C@H]2OC [Compound 2] | 26.3 ± 0.37 | 13.4 ± 2.78 | 26.4 ± 0.36 |  |
| CCN1C[C@]2(OC(=O)c3ccccc3NC(=O)/C=C/c3ccccn3)CC[C@H](OC)[C@]34C1[C@@H](C[C@H]23)[C@@]1(O)C[C@H](OC)C[C@H]2C[C@@H]4[C@]1(O)[C@H]2OC [Compound 3] | 13.7 ± 1.28 |  | 15.2 ± 1.18 |  |
| CCN1C[C@]2(OC(=O)c3ccccc3NC(=O)/C=C(\C)c3cccnc3)CC[C@H](OC)[C@]34C1[C@@H](C[C@H]23)[C@@]1(O)C[C@H](OC)C[C@H]2C[C@@H]4[C@]1(O)[C@H]2OC [Compound 4] | > 100 | 67.31 ± 0.44 | > 100 |  |
| O=c1[nH]cc(F)c(=O)[nH]1 [Compound 5-FU, 5-fluorouracil, reference compound] | 22.4 ± 1.67 | 15.6 ± 3.54 | 8.17 ± 0.39 |  |
| CCN1C[C@]2(OC(=O)c3ccccc3NC(=O)/C=C/c3cncc(C)c3)CC[C@H](OC)[C@]34C1[C@@H](C[C@H]23)[C@@]1(O)C[C@H](OC)C[C@H]2C[C@@H]4[C@]1(O)[C@H]2OC [Compound 5] | 29.6 ± 3.54 | 13.2 ± 0.39 | 11.3 ± 0.64 | equal or better activities than 5-fluorouracil |
| CCN1C[C@]2(OC(=O)c3ccccc3NC(=O)/C=C/c3cnccc3C)CC[C@H](OC)[C@]34C1[C@@H](C[C@H]23)[C@@]1(O)C[C@H](OC)C[C@H]2C[C@@H]4[C@]1(O)[C@H]2OC [Compound 6] | 37.8 ± 0.42 | 42.65 ± 0.38 | 33.5 ± 1.17 |  |
| CCN1C[C@]2(OC(=O)c3ccccc3NC(=O)/C=C/c3ccc(C)nc3)CC[C@H](OC)[C@]34C1[C@@H](C[C@H]23)[C@@]1(O)C[C@H](OC)C[C@H]2C[C@@H]4[C@]1(O)[C@H]2OC [Compound 7] | 39.3 ± 1.74 | 47.31 ± 0.44 | 43.3 ± 1.42 |  |
| CCc1cncc(/C=C/C(=O)Nc2ccccc2C(=O)O[C@@]23CC[C@H](OC)[C@]45C([C@@H](C[C@H]24)[C@@]2(O)C[C@H](OC)C[C@H]4C[C@@H]5[C@]2(O)[C@H]4OC)N(CC)C3)c1 [Compound 8] | 33.5 ± 1.18 | 25.1 ± 2.23 | 38.1 ± 0.44 |  |
| CCN1C[C@]2(OC(=O)c3ccccc3NC(=O)/C=C(\C)c3ccncc3)CC[C@H](OC)[C@]34C1[C@@H](C[C@H]23)[C@@]1(O)C[C@H](OC)C[C@H]2C[C@@H]4[C@]1(O)[C@H]2OC [Compound 9] | > 100 | > 100 | 73.37 ± 0.69 |  |
| CCN1C[C@]2(OC(=O)c3ccccc3NC(=O)/C(C)=C/c3ccncc3)CC[C@H](OC)[C@]34C1[C@@H](C[C@H]23)[C@@]1(O)C[C@H](OC)C[C@H]2C[C@@H]4[C@]1(O)[C@H]2OC [Compound 10] | > 100 | > 100 | > 100 |  |
| CCN1C[C@]2(OC(=O)c3ccccc3NC(=O)/C=C/c3ccnc(C)c3)CC[C@H](OC)[C@]34C1[C@@H](C[C@H]23)[C@@]1(O)C[C@H](OC)C[C@H]2C[C@@H]4[C@]1(O)[C@H]2OC [Compound 11] | 10.2 ± 0.45 | 18.6 ± 0.43 | 10.2 ± 0.78 | equal or better activities than 5-fluorouracil |
| CCc1cc(/C=C/C(=O)Nc2ccccc2C(=O)O[C@@]23CC[C@H](OC)[C@]45C([C@@H](C[C@H]24)[C@@]2(O)C[C@H](OC)C[C@H]4C[C@@H]5[C@]2(O)[C@H]4OC)N(CC)C3)ccn1 [Compound 12] | 25.05 ± 0.16 | 21.7 ± 0.45 | 13.86 ± 0.1 | equal or better activities than 5-fluorouracil |
| CCN1C[C@]2(OC(=O)c3ccccc3NC(=O)/C=C/c3cc(C)nc(C)c3)CC[C@H](OC)[C@]34C1[C@@H](C[C@H]23)[C@@]1(O)C[C@H](OC)C[C@H]2C[C@@H]4[C@]1(O)[C@H]2OC [Compound 13] | 18 ± 0.58 | 32.3 ± 1.34 | 16.6 ± 1.87 |  |
| CCN1C[C@]2(OC(=O)c3ccccc3NC(=O)/C=C/c3cc(C)ccn3)CC[C@H](OC)[C@]34C1[C@@H](C[C@H]23)[C@@]1(O)C[C@H](OC)C[C@H]2C[C@@H]4[C@]1(O)[C@H]2OC [Compound 14] | 87.02 ± 0.58 | 41.3 ± 1.42 | 67.8 ± 1.3 |  |
| CCc1ccnc(/C=C/C(=O)Nc2ccccc2C(=O)O[C@@]23CC[C@H](OC)[C@]45C([C@@H](C[C@H]24)[C@@]2(O)C[C@H](OC)C[C@H]4C[C@@H]5[C@]2(O)[C@H]4OC)N(CC)C3)c1 [Compound 15] | 21.8 ± 1.2 | 47.3 ± 2.56 | 44.1 ± 2.73 |  |
| CCN1C[C@]2(OC(=O)c3ccccc3NC(=O)/C=C/c3cc(C)cc(C)n3)CC[C@H](OC)[C@]34C1[C@@H](C[C@H]23)[C@@]1(O)C[C@H](OC)C[C@H]2C[C@@H]4[C@]1(O)[C@H]2OC [Compound 16] | > 100 | 69.3 ± 1.42 | 40.8 ± 2.55 |  |
| CCN1C[C@]2(OC(=O)c3ccccc3NC(=O)/C=C/c3cc(C(C)C)ccn3)CC[C@H](OC)[C@]34C1[C@@H](C[C@H]23)[C@@]1(O)C[C@H](OC)C[C@H]2C[C@@H]4[C@]1(O)[C@H]2OC [Compound 17] | > 100 | > 100 | 61.3 ± 1.24 |  |
| CCN1C[C@]2(OC(=O)c3ccccc3NC(=O)/C(C)=C/c3cccc(C)n3)CC[C@H](OC)[C@]34C1[C@@H](C[C@H]23)[C@@]1(O)C[C@H](OC)C[C@H]2C[C@@H]4[C@]1(O)[C@H]2OC [Compound 18] | > 100 | > 100 | > 100 |  |
| CCN1C[C@]2(OC(=O)c3ccccc3NC(=O)/C=C/c3cccc(C)n3)CC[C@H](OC)[C@]34C1[C@@H](C[C@H]23)[C@@]1(O)C[C@H](OC)C[C@H]2C[C@@H]4[C@]1(O)[C@H]2OC [Compound 19] | 95.1 ± 1.92 | > 100 | > 100 |  |
